Experimental data as given in patent publication US9161945B2, “4-isopropyl-6-methoxyphenyl glucitol compound” (TAISHO PHARMACEUTICAL CO., LTD., priority 2010, dated 2015).
Marks after values point to notes of the source that are not given here.

What was measured:
human SGLT1 = human SGLT1 (Homo sapiens (Human), UniProt P13866); test: Inhibition test of sodium-dependent glucose uptake in CHO-K1 cells stably expressing human SGLT1; format: cell-based; settings: [14C]methyl α-D-glucopyranoside uptake, 37° C., 30 minutes, read-out: IC50 for hSGLT1
Sequence of human SGLT1 (P13866 whole entry): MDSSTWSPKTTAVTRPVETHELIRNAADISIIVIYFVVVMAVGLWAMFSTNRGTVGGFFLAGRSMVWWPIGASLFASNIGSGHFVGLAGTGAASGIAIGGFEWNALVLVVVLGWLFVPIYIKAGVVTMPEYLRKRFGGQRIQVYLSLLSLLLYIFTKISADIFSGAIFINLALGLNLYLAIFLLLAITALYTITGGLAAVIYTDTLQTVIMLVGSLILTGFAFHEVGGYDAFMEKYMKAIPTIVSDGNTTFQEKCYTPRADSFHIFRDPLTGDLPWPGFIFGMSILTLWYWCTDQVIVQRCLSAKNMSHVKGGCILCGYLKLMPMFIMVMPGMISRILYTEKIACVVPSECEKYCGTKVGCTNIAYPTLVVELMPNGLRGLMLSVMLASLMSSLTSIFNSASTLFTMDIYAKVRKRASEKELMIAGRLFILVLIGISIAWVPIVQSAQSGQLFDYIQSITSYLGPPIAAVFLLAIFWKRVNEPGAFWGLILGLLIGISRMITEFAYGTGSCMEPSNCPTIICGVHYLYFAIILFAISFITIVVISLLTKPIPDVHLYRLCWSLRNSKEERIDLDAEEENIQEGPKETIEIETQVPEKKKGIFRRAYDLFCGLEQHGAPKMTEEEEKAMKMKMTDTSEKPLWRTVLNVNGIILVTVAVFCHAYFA
Protocol: (1) Creation of CHO-K1 Cells Stably Expressing Human SGLT1
(§1) A plasmid vector expressing human SGLT1 protein was transfected into CHO-K1 cells using Lipofectamine 2000 (Invitrogen). The cells were cultured in the presence of 500 μg/mL geneticin to select resistant strains, followed by screening in the system shown below using sugar uptake capacity as an indicator to obtain SGLT1-expressing cells.
(§2) (3) Inhibition Test of Sodium-Dependent Glucose Uptake in Stable Expression Cells
(§3) The stably expressing cells prepared above were used in the following test.
(§4) Pretreatment buffer (140 mM choline chloride, 2 mM KCl, 1 mM CaCl2, 1 mM MgCl2, 10 mM HEPES/5 mM Tris, pH 7.4) was added to the stably expressing cells, followed by incubation for 20 minutes. The pretreatment buffer was removed and replaced by uptake buffer containing a test compound (1 mM methyl α-D-glucopyranoside (containing [^14C]methyl α-D-glucopyranoside), 145 mM NaCl, 2 mM KCl, 1 mM CaCl2, 1 mM MgCl2, 10 mM HEPES/5 mM Tris, pH 7.4). Uptake reaction was performed at 37° C. for 30 minutes (SGLT1) or 60 minutes (SGLT2). […] A liquid scintillator (Perkin Elmer) was added and mixed well, followed by measurement of radioactivity using a β-ray analyzer. […]

human SGLT2 = human SGLT2 (Homo sapiens (Human), UniProt P31639); test: Inhibition test of sodium-dependent glucose uptake in CHO-K1 cells stably expressing human SGLT2; format: cell-based; settings: [14C]methyl α-D-glucopyranoside uptake, 37° C., 60 minutes, read-out: IC50 for hSGLT2
Sequence of human SGLT2 (P31639 whole entry): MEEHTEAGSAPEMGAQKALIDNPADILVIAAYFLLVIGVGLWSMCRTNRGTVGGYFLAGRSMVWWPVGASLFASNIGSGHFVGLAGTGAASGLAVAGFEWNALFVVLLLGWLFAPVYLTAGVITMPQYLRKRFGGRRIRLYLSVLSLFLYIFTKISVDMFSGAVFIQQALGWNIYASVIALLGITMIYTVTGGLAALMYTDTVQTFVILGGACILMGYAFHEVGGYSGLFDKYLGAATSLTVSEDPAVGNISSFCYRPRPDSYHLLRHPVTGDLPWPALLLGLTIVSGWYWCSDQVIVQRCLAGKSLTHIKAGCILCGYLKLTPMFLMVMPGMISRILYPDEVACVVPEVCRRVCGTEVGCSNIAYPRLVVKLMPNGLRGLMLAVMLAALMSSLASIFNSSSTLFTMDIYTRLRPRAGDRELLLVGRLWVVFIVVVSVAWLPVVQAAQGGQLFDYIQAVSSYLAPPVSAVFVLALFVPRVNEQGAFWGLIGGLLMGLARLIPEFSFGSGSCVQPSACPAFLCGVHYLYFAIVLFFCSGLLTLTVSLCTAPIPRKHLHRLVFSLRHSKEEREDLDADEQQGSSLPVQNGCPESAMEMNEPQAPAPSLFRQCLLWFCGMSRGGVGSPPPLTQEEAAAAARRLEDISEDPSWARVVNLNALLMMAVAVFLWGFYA
Protocol: (2) Creation of CHO-K1 Cells Stably Expressing Human SGLT2
as §1, with “SGLT2” for “SGLT1”, “LTX” for “2000”, “1000” for “500”, “SGLT2-expressing” for “SGLT1-expressing”
as §2, §3, §4

[1] = Renal concentrations after repeated oral administration for 3 days; format: in vivo, SD/IGS rats
Protocol: (2) Renal Concentrations of the Compound (I) of the Present Invention After Repeated Oral Administration for 3 Days
SD/IGS rats at 7 weeks of age (male, non-fasting, Charles River Laboratories Japan Inc.) were orally administered once a day for 3 consecutive days with the compound (I) (3 mg/kg) prepared in a 0.5% aqueous solution of CMC. At 48 hours after the final drug administration, the rats were exsanguinated via the postcaval vein under isoflurane anesthesia, and their kidneys were excised after they were confirmed to be euthanized. After the tissue surface was washed with physiological saline, each tissue was measured for its weight and homogenized in 4 volumes of purified water under ice cooling. The drug concentration in each homogenate was determined in the same manner as shown in Test Example 2(1) by LC-MS/MS using compound 11 as an internal standard substance.

[2] = tested on: streptozotocin diabetic model rats; test: Oral glucose tolerance test (hypoglycemic effect) in streptozotocin diabetic model rats; format: in vivo, SD/IGS rats; settings: for STZ rats OGTT % inhibition ΔAUC0-1h (mg/dl) @ 1 mg/kg/po: STZ-induced diabetic rats versus vehicle control, oral dose 1 mg/kg, glucose 2 g/kg
Protocol: (§5) Test Example 3 Confirmation study of hypoglycemic effect in streptozotocin diabetic model rats
(§6) (1) Preparation of Diabetic Model Rats
(§7) SD/IGS rats at 7 weeks of age (male, Charles River Laboratories Japan Inc.) were fasted for about 16 hours and then injected with 50 mg/kg streptozotocin (STZ) via the caudal vein under ether anesthesia to prepare diabetic model rats. Similarly, another group of SD/IGS rats at 7 weeks of age was injected with 1.25 mmol/L citric acid in physiological saline (1 mL/kg) via the caudal vein under ether anesthesia to prepare normal control rats. At one week after injection of STZ or 1.25 mmol/L citric acid in physiological saline, the rats (8 weeks old) were provided for an oral glucose tolerance test.
(§8) (2) Oral Glucose Tolerance Test
(§9) […] At 5 minutes after drug administration, a glucose solution (2 g/kg) was orally administered to each rat, and the blood was collected at a total of 5 time points: before drug administration (0 time), and at 0.25, 0.5, 1 and 2 hours after the oral administration.
(§10) Blood was collected from the caudal veins of the rats under ether anesthesia with the use of a heparin-coated blood collecting tube and centrifuged, whereafter blood plasma was separated. Plasma glucose concentrations were quantified by measurement with a Glucose CII-Test Wako (Wako Pure Chemical Industries, Ltd., Japan). To determine the intensity of hypoglycemic effect, the blood glucose level before drug administration was subtracted from each blood glucose level measured until one hour after oral administration in each drug group, and the resulting values were analyzed by the trapezoidal method to calculate an increment in the area under the curve for glucose (ΔAUC), which was expressed as a decrease relative to ΔAUC of the control group.

[3] = Renal concentrations until one week after single oral administration; format: in vivo, SD/IGS rats; settings: male Sprague-Dawley rats
Protocol: (1) Changes in Renal Concentrations of Compounds 4, 10, 11 and 33 Disclosed in WO2007/136116 Until One Week After Oral Administration
SD/IGS rats at 7 weeks of age (male, non-fasting, Charles River Laboratories Japan Inc.) were orally administered with compound 4, 10 or 33 (1 mg/kg each) or compound 11 (0.3 mg/kg) prepared in a 0.5% aqueous solution of CMC. At 24, 72 and 168 hours after drug administration, the rats were exsanguinated via the postcaval vein under ether anesthesia, and their kidneys were excised after they were confirmed to be euthanized. After the tissue surface was washed with physiological saline, each tissue was measured for its weight and homogenized in 4 volumes of purified water under ice cooling. To each homogenate, an acetonitrile/methanol solution containing an internal standard substance was added to remove proteins, and the supernatant was then subjected to LC-MS/MS (Applied Biosystems API3000). Drug-derived ions generated by electrospray ionization in positive ion mode were detected by selective reaction monitoring. The peak area of the resulting extracted ion chromatogram was analyzed by the internal standard method to calculate the drug concentration in the homogenate.
As the internal standard material for compounds 10 and 33, (1S)-1,5-anhydro-1-[5-(4-ethoxybenzyl)-2-methoxy-4-methylphenyl]-1-thio-D-glucitol,ethyl-D5 was used. As the internal standard materials for compounds 4 and 11, compound 11 and deuterium-labeled compound 11 (trishydroxymethyl-D6; —C(CD2OH)3), respectively, were used.

[4] = Oral glucose tolerance test (hypoglycemic effect) in streptozotocin diabetic model rats; format: in vivo, SD/IGS rats; settings: OGTT using Sprague-Dawley rats, not STZ rats; oral dose 1 mg/kg
Protocol: as §5, §6, §7, §8, §9, §10

Row | SMILES | Concentration of compounds in kidney after single oral administration, After 1 day ([3]; 1 mg/kg po, 1 day (24 hours)) | Concentration of compounds in kidney after single oral administration, After 3 days ([3]; 1 mg/kg po, 3 days (72 hours)) | Concentration of compounds in kidney after single oral administration, After 7 days ([3]; 1 mg/kg po, 7 days (168 hours)) | STZ rats OGTT % inhibition ΔAUC0-1h (mg/dl) @ 1 mg/kg/po [2] | further results
1 | COc1cc(C(C)C)c(Cc2ccc(/C=C/C(C)(C)C(=O)NC(C)(C)C(N)=O)cc2C)cc1[C@@H]1O[C@H](CO)[C@@H](O)[C@H](O)[C@H]1O [Compound (I)] |  |  |  |  | IC50 (human SGLT1): 65 nM; IC50 (human SGLT2): 554 nM; remaining in the kidney (in words) ([1]; 3 mg/kg for 3 consecutive days, at subsequent day 2): did not remain in the kidney; Concentration of compounds in kidney after 3 days continuous oral administration, After 2 days ([1]; 3 mg/kg po once a day for 3 days, male Sprague-Dawley rats, 48 hours after final administration, limit of detection 5 ng/g): ND^# (ND (not determined) means limit of detection (5 ng/g).); hypoglycemic action (in words) ([2]; glucose tolerance test, compound of the invention): potent hypoglycemic action
2 | Cc1cc(O)c([C@@H]2O[C@H](CO)[C@@H](O)[C@H](O)[C@H]2O)cc1Cc1ccc(CCNC(=O)NC2CCN(Cc3ccccc3)CC2)cc1 [compound 33] | 29.8 ± 6.79 ng/g | 25.5 ± 8.68 ng/g | 16.2 ± 3.11 ng/g |  | OGTT % inhibition ΔAUC0-1h (mg/dl) @ 1 mg/kg/po [4]: 81^# %
3 | Cc1cc(O)c([C@@H]2O[C@H](CO)[C@@H](O)[C@H](O)[C@H]2O)cc1Cc1ccc(CCNC(=O)NC(CO)(CO)CO)cc1 [compound 11] |  |  |  | 68% | Concentration of compounds in kidney after single oral administration, After 1 day ([3]; 0.3 mg/kg po (footnote *), 1 day, mean ± S.D.): 63.5 ± 20.1* ng/g; Concentration of compounds in kidney after single oral administration, After 3 days ([3]; 0.3 mg/kg po (footnote *), 3 days, mean ± S.D.): 67.3 ± 3.15* ng/g; Concentration of compounds in kidney after single oral administration, After 7 days ([3]; 0.3 mg/kg po (footnote *), 7 days, mean ± S.D.): 48.7 ± 18.3* ng/g

Now from value to compound, other results behind:

Row | Concentration of compounds in kidney after single oral administration, After 1 day ([3]; 1 mg/kg po, 1 day (24 hours)) | Concentration of compounds in kidney after single oral administration, After 3 days ([3]; 1 mg/kg po, 3 days (72 hours)) | Concentration of compounds in kidney after single oral administration, After 7 days ([3]; 1 mg/kg po, 7 days (168 hours)) | SMILES | STZ rats OGTT % inhibition ΔAUC0-1h (mg/dl) @ 1 mg/kg/po [2] | further results
4 | 68.4 ± 7.49 ng/g | 85.5 ± 23.1 ng/g | 76.3 ± 15.5 ng/g | Cc1cc(O)c([C@@H]2O[C@H](CO)[C@@H](O)[C@H](O)[C@H]2O)cc1Cc1ccc(CCCC(=O)NC(C)(C)C(N)=O)cc1 [compound 4] | 51% | 
5 | 167 ± 36.3 ng/g | 124 ± 12.2 ng/g | 53.8 ± 7.6 ng/g | Cc1cc(O)c([C@@H]2O[C@H](CO)[C@@H](O)[C@H](O)[C@H]2O)cc1Cc1ccc(CCNC(=O)NC(C)(C)CO)cc1 [compound 10] | 69% | 
